Experimental data published in the supplement of paper PMC8149375.

Columns and labels:
Conditions in all cases: treatment: drug + dasatinib (fixed dose, not stated); 5 days
769-P [1] = experiment: GI50 of drug in presence of dasatinib; higher = less potent
Protocol: (§1)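 Primary HTS combination arm: 8 RCC cell lines treated with 8 doses (up to 10 uM) of each library drug plus a fixed dose of dasatinib (dose not stated) for 5 days; viability read by CellTiter-Glo and normalised to DMSO. GI50 was fitted with XLfit, AUC is the area under the dose-response curve, and minimum viability is the lowest fraction of DMSO viability across doses.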

786-O [2] = experiment: as above
Protocol: as §1

UO-31 [3] = experiment: as above
Protocol: as §1

SN12C [4] = experiment: as above
Protocol: as §1

TK-10 [5] = experiment: as above
Protocol: as §1

A498 [6] = experiment: as above
Protocol: as §1

CAKI-1 [7] = experiment: as above
Protocol: as §1

769-P [8] = experiment: minimum viability across doses, drug + dasatinib, relative to DMSO (fraction); higher = less growth inhibition
Protocol: as §1

786-O [9] = experiment: as above
Protocol: as §1

UO-31 [10] = experiment: as above
Protocol: as §1

ACHN [11] = experiment: as above
Protocol: as §1

SN12C [12] = experiment: as above
Protocol: as §1

TK-10 [13] = experiment: as above
Protocol: as §1

A498 [14] = experiment: as above
Protocol: as §1

CAKI-1 [15] = experiment: as above
Protocol: as §1

769-P [16] = experiment: AUC of dose-response viability curve, drug + dasatinib, normalised to DMSO (arbitrary (AUC of normalised viability)); higher = less growth inhibition
Protocol: as §1

786-O [17] = experiment: as above
Protocol: as §1

UO-31 [18] = experiment: as above
Protocol: as §1

ACHN [19] = experiment: as above
Protocol: as §1

SN12C [20] = experiment: as above
Protocol: as §1

TK-10 [21] = experiment: as above
Protocol: as §1

A498 [22] = experiment: as above
Protocol: as §1

CAKI-1 [23] = experiment: as above
Protocol: as §1

SMILES	GI50 of drug (769-P [1]) [µM]	GI50 of drug (786-O [2]) [µM]	GI50 of drug (UO-31 [3]) [µM]	GI50 of drug (SN12C [4]) [µM]	GI50 of drug (TK-10 [5]) [µM]	GI50 of drug (A498 [6]) [µM]	GI50 of drug (CAKI-1 [7]) [µM]	minimum viability across doses (769-P [8])	minimum viability across doses (786-O [9])	minimum viability across doses (UO-31 [10])	minimum viability across doses (ACHN [11])	minimum viability across doses (SN12C [12])	minimum viability across doses (TK-10 [13])	minimum viability across doses (A498 [14])	minimum viability across doses (CAKI-1 [15])	AUC of dose-response viability curve (769-P [16])	AUC of dose-response viability curve (786-O [17])	AUC of dose-response viability curve (UO-31 [18])	AUC of dose-response viability curve (ACHN [19])	AUC of dose-response viability curve (SN12C [20])	AUC of dose-response viability curve (TK-10 [21])	AUC of dose-response viability curve (A498 [22])	AUC of dose-response viability curve (CAKI-1 [23])
CCS(=O)(=O)N1CC(CC#N)(n2cc(-c3ncnc4[nH]ccc34)cn2)C1 + Cc1nc(Nc2ncc(C(=O)Nc3c(C)cccc3Cl)s2)cc(N2CCN(CCO)CC2)n1 [dasatinib]	> 10	6.65	> 10	> 10	> 10	> 10	8.06	0.625	0.399	0.917	0.44	0.692	0.689	1.07	0.47	2.46	2.58	4.24	1.78	2.51	2.61	4.02	2.4
CC[C@H](Nc1ncnc2[nH]cnc12)c1nc2cccc(F)c2c(=O)n1-c1ccccc1 [CAL-101 (GS-1101)] + Cc1nc(Nc2ncc(C(=O)Nc3c(C)cccc3Cl)s2)cc(N2CCN(CCO)CC2)n1 [dasatinib]	7.53	1.48	6.29	> 10	8.33	> 10		0.477	0.298	0.362	0.341	0.546	0.493	0.843	0.0955	2.32	2.12	3.55	1.86	2.3	2.44	3.29	1.84
O=C1Nc2ccccc2/C1=C1/Nc2ccccc2C1=O [Indirubin] + Cc1nc(Nc2ncc(C(=O)Nc3c(C)cccc3Cl)s2)cc(N2CCN(CCO)CC2)n1 [dasatinib]	> 10		> 10	> 10	> 10	> 10	> 10	0.632	0.394	0.799	0.435	0.624	0.593	0.941	0.497	2.38	1.76	3.15	1.65	2.36	2.48	3.41	2.02
COc1ccc2c(c1OC)N=C(NC(=O)c1cccnc1)N1CCN=C21 [PIK-90] + Cc1nc(Nc2ncc(C(=O)Nc3c(C)cccc3Cl)s2)cc(N2CCN(CCO)CC2)n1 [dasatinib]	1.48		3.82	2.26	> 10	> 10	0.424	0.268	0.388	0.434	0.235	0.52	0.552	0.762	0.136	2.03	1.76	2.69	1.7	2.21	2.3	3.11	1.82
